Values joined by “and” are separate entries in the source; they are usually repeats but may differ in a detail not shown here. Identical values can stand only once. “Also recorded” adds a separate entry of the source. Like-named read-outs stand apart in the source and are kept apart here.
What was measured:
[1] = test system: patients; conditions: cited from earlier work; for incidence of diarrhea / incidence of second malignancy: ref 10 (ibrutinib), 14 (acalabrutinib), 15 (zanubrutinib)
[2] = test system: patients with r/r MCL; conditions: cited from earlier work
[3] = test system: patients with r/r MCL; assay: phase 1/2 study safety; format: in vivo, human
[4] = test system: patients with r/r MCL; assay: phase 1/2 study efficacy; format: in vivo, human
[5] = pharmacokinetics in patients with r/r MCL
[6] = median follow-up of 26.7 months
[7] = PET assessment, median follow-up 26 months
[8] = PET assessment, median follow-up 18.4 months
[9] = 29 patients with best response CR
[10] = IRC-assessed, n=106, follow-up 23.8 mo
[11] = Investigator-assessed, n=106, follow-up 23.8 mo

C=CC(=O)N1CCC[C@@H](n2nc(-c3ccc(Oc4ccccc4)cc3)c3c(N)ncnc32)C1 [ibrutinib]
grade 3 or greater atrial fibrillation and atrial flutter [1]: 4% | grade 3 or higher hypertension events [1]: 8% | median TTR [2]: 1.9 months | ORR in patients with bulky tumors [2, 6]: 67% | ORR in patients with ≥2 prior treatments [2, 6]: 63% | ORR ([2]; pivotal study 1104, r/r MCL, median 15.3-month follow-up, CT-based): 65.8% | median DOR ([2]; pivotal study 1104): 17.5 months | median PFS ([2]; pivotal study 1104): 13.9 months | CR ([2]; pivotal study 1104, median 15.3-month follow-up, CT-based): 17.1%

CC#CC(=O)N1CCC[C@H]1c1nc(-c2ccc(C(=O)Nc3ccccn3)cc2)c2c(N)nccn12 [acalabrutinib]
major hemorrhage [1]: 3.0% | incidence of diarrhea [1]: 31% | incidence of second malignancy [1]: 12% | CR [2, 7]: 43% | ORR [2, 7]: 81% | median DOR ([2]; acalabrutinib trial): 26 months | median PFS ([2]; acalabrutinib trial): 20 months

C=CC(=O)N1CCC([C@@H]2CCNc3c(C(N)=O)c(-c4ccc(Oc5ccccc5)cc4)nn32)CC1 [zanubrutinib]
major hemorrhage [1]: 5.4% | rate of treatment discontinuation [1]: 12.5% | incidence of diarrhea [1]: 23% | incidence of second malignancy [1]: 14% | CR [2, 8]: 68.6% | ORR [2, 8]: 84% | median TTR [2]: 2.8 months | median DOR ([2]; zanubrutinib trial): 19.5 months | median PFS ([2]; zanubrutinib trial): 22.1 months

C=CC(=O)N1CCC(c2ccc(C(N)=O)c(-c3ccc(Oc4ccccc4)cc3)n2)CC1 [orelabrutinib]
atrial fibrillation, grade 1 ([3]; cycle 1, deemed unrelated to treatment): 1 episode | AEs leading to discontinuation of treatment ([3]; n=106): 4.7% | Alanine aminotransferase increase (any grade): Incidence ([3]; n=106): 10.4% | Alanine aminotransferase increase (any grade): Number of patients ([3]; n=106): 11 | All TEAEs: Incidence ([3]; n=106): 95.3% | All TEAEs: Number of patients ([3]; n=106): 101 | All grade ≥3 TEAEs: Incidence ([3]; n=106): 51.9% | All grade ≥3 TEAEs: Number of patients ([3]; n=106): 55 | Anemia (any grade): Incidence ([3]; n=106): 19.8% | Anemia (any grade): Number of patients ([3]; n=106): 21 | Anemia (grade ≥3): Incidence ([3]; n=106): 7.5% | Anemia (grade ≥3): Number of patients ([3]; n=106): 8 | Cough (any grade): Incidence ([3]; n=106): 16.0% | Cough (any grade): Number of patients ([3]; n=106): 17 | Diarrhea (any grade): Incidence ([3]; n=106): 11.3% | Diarrhea (any grade): Number of patients ([3]; n=106): 12 | Disease progression (grade ≥3 AE): Incidence ([3]; n=106): 4.7% | Disease progression (grade ≥3 AE): Number of patients ([3]; n=106): 5 | Grade 3 or higher infection events ([3]; n=106): 14.2% | Hematuria (any grade): Incidence ([3]; n=106): 10.4% | Hematuria (any grade): Number of patients ([3]; n=106): 11 | Hyperglycemia (any grade): Incidence ([3]; n=106): 12.3% | Hyperglycemia (any grade): Number of patients ([3]; n=106): 13 | Hypertension (any grade): Incidence ([3]; n=106): 17% | Hypertension (any grade): Number of patients ([3]; n=106): 18 | Hypertension (grade ≥3): Incidence ([3]; n=106): 5.7% | Hypertension (grade ≥3): Number of patients ([3]; n=106): 6 | Hypoalbuminemia (any grade): Incidence ([3]; n=106): 10.4% | Hypoalbuminemia (any grade): Number of patients ([3]; n=106): 11 | Hypokalemia (any grade): Incidence ([3]; n=106): 17.0% | Hypokalemia (any grade): Number of patients ([3]; n=106): 18 | Hypokalemia (grade ≥3): Incidence ([3]; n=106): 2.8% | Hypokalemia (grade ≥3): Number of patients ([3]; n=106): 3 | Leukocytosis (grade ≥3): Incidence ([3]; n=106): 3.8% | Leukocytosis (grade ≥3): Number of patients ([3]; n=106): 4 | Leukopenia (any grade): Incidence ([3]; n=106): 19.8% | Leukopenia (any grade): Number of patients ([3]; n=106): 21 | Lymphocytosis (grade ≥3): Incidence ([3]; n=106): 3.8% | Lymphocytosis (grade ≥3): Number of patients ([3]; n=106): 4 | Neutropenia (any grade): Incidence ([3]; n=106): 24.5% | Neutropenia (any grade): Number of patients ([3]; n=106): 26 | Neutropenia (grade ≥3): Incidence ([3]; n=106): 8.5% | Neutropenia (grade ≥3): Number of patients ([3]; n=106): 9 | Pneumonia (any grade): Incidence ([3]; n=106): 11.3% | Pneumonia (any grade): Number of patients ([3]; n=106): 12 | Pneumonia (grade ≥3): Incidence ([3]; n=106): 5.7% | Pneumonia (grade ≥3): Number of patients ([3]; n=106): 6 | Pneumonitis (any grade): Incidence ([3]; n=106): 17.9% | Pneumonitis (any grade): Number of patients ([3]; n=106): 19 | Pneumonitis (grade ≥3): Incidence ([3]; n=106): 3.8% | Pneumonitis (grade ≥3): Number of patients ([3]; n=106): 4 | Prolonged QT interval (any grade): Incidence ([3]; n=106): 11.3% | Prolonged QT interval (any grade): Number of patients ([3]; n=106): 12 | Pyrexia (any grade): Incidence ([3]; n=106): 12.3% | Pyrexia (any grade): Number of patients ([3]; n=106): 13 | Rash (any grade): Incidence ([3]; n=106): 17.0% | Rash (any grade): Number of patients ([3]; n=106): 18 | SAE Pneumonia: Incidence ([3]; n=106): 5.7% | SAE Pneumonitis: Incidence ([3]; n=106): 4.7% | SAE Progressive disease: Incidence ([3]; n=106): 4.7% | Soft tissue infection (grade ≥3): Incidence ([3]; n=106): 2.8% | Soft tissue infection (grade ≥3): Number of patients ([3]; n=106): 3 | Thrombocytopenia (any grade): Incidence ([3]; n=106): 34.0% | Thrombocytopenia (any grade): Number of patients ([3]; n=106): 36 | Thrombocytopenia (grade ≥3): Incidence ([3]; n=106): 13.2% | Thrombocytopenia (grade ≥3): Number of patients ([3]; n=106): 14 | Upper respiratory tract infection (any grade): Incidence ([3]; n=106): 27.4% | Upper respiratory tract infection (any grade): Number of patients ([3]; n=106): 29 | Weight increase (any grade): Incidence ([3]; n=106): 11.3% | Weight increase (any grade): Number of patients ([3]; n=106): 12 | bleeding events (any) ([3]; n=106): 34.9% | bleeding events grade 1 ([3]; n=106): 31.1% | bleeding events grade 2 ([3]; n=106): 3.8% | death from infection due to acute myeloid leukemia ([3]; n=106): 1% | death from lung infection due to the common cold ([3]; n=106): 1% | deaths due to drug-related AEs (fatal TRAEs) ([3]; n=106): no fatal TRAEs were reported; also recorded: No deaths due to drug-related AEs were reported | deaths from AEs deemed unrelated to treatment ([3]; n=106): 2% | deaths from disease progression ([3]; n=106): 15% | diarrhea judged as related to treatment ([3]; n=106): 3.8% | discontinued treatment because of drug-related AEs ([3]; n=106): 2.8% | drug-related grade 3 or higher infection events ([3]; n=106): 6.6% | drug-related infection events ([3]; n=106): 34% | drug-related pneumonia ([3]; n=106): 7.5% | drug-related upper respiratory tract infection ([3]; n=106): 13.2% | grade 3 or higher second primary malignancy, atrial fibrillation/flutter, diarrhea, or bleeding events ([3]; n=106): No grade 3 or higher second primary malignancy, atrial fibrillation/flutter, diarrhea, or bleeding events were observed | major hemorrhage (grade 3 or higher, serious, or any grade CNS bleeding) ([3]; n=106): No patient experienced major hemorrhage | microscopic hematuria ([3]; n=106): 6.6% | patients who died during the study ([3]; n=106): 27 patients | patients with treatment-related grade 3 or higher AEs ([3]; n=106): 34.9% | petechiae ([3]; n=106): 4.7% | proportion of AEs that were grade 1 or 2 ([3]; n=106): 89% | purpura ([3]; n=106): 4.7% | rate of second malignancy ([3]; n=106): 2.8% | second primary malignancy ([3]; n=106): 3 patients | treatment-related AEs leading to dose interruption ([3]; n=106): 17% | treatment-related anemia ([3]; n=106): 14.2% | treatment-related decreases in neutrophils ([3]; n=106): 22.6% | treatment-related decreases in platelets ([3]; n=106): 32.1% | treatment-related decreases in white blood cells ([3]; n=106): 18.9% | treatment-related hypertension ([3]; n=106): 15.1% | DOR rate at 24 months [4, 9]: ~80% | OS at 24 months [4, 9]: ~100% | PFS rate at 24 months [4, 9]: ~80% | median reduction percentage in the SPD of target lesions ([4]; CT/MRI, baseline median SPD 2514.4 mm^2): 87.2% | patients with objective response ([4]; IRC assessment, n=106): 86 patients | median DOR ([4]; IRC-assessed): 22.9 months | CR [4, 10]: 27.4% | DCR [4, 10]: 86.8 (78.8-92.6) % | PD [4, 10]: 8.5% | PR [4, 10]: 53.8% | ORR ([4]; IRC-assessed, n=106, median follow-up 23.8 mo): 81.1 (72.4-88.1) % | CR ([4]; IRC, follow-up 10.5 mo): 25.5% | CR [4, 11]: 34.9% | DCR [4, 11]: 87.7 (79.9-93.3) % | ORR [4, 11]: 82.1 (73.4-88.9) % | PD [4, 11]: 5.7% | PR [4, 11]: 47.2% | median PFS ([4]; full analysis set): 22.0 months and 22 months | patients with objective response ([4]; investigator assessment, n=106): 87 patients | median TTR ([4]; n=106): 1.9 months | ORR (95% CI), IRC ([4]; subgroup Age ≥65): 83.3% | ORR (95% CI), IRC ([4]; subgroup Baseline Splenomegaly Yes): 66.7% | ORR (95% CI), IRC ([4]; subgroup Ki-67 ≥30%): 79.4% | ORR (95% CI), IRC ([4]; subgroup Prior CD20 Antibody Therapy No): 91.7% | ORR (95% CI), IRC ([4]; subgroup Prior lines of therapy ≥2): 75.9% | ORR (95% CI), IRC ([4]; subgroup Tumor Stage III/IV): 80% | ORR (95% CI), IRC ([4]; subgroup longest target lesion ≥10 cm (bulky disease)): 81.8% | Tmax ([5]; human, in vivo, 150 mg, Tmax (median, minimum-maximum), Day 1 single, 150 mg): 2 h | Coefficients of variation of pharmacokinetic parameters ([5]; patients with r/r MCL): < 30%
